The record followed here is US20240238423A9, “TETRAHYDROISOQUINOLINE HETEROBIFUNCTIONAL BCL-XL DEGRADERS” (Treeline Biosciences, Inc., priority 2022, published 2024).

Where two headings read alike, the source gives them in different places.

The experiment deals with T1, Human BCL-XL protein (N-terminal HiBiT tagged BCL-XL in HT1080 cells) (Homo sapiens, UniProt Q07817).
T1 construct: expressed in transfected cells; host or cells: HT-1080 (ATCC CCL-121), stably transduced with lentivirus pLV-UBC-N-HiBiT-BCL-XL-PGK-puro and selected with puromycin
Description: HiBiT based degradation assay. The class given is cell-based. As to conditions: HT1080 cells expressing HiBiT-BCL-XL; for Ymin (24 h) / Ymin (6 h): BCL-XL degradation normalized with DMSO control; for DC50: BCL-XL degradation. The essentials: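 HT1080 cells stably transduced by lentivirus with N-terminally HiBiT-tagged human BCL-XL and kept under 1 μg/mL puromycin selection were seeded at three thousand cells per well in 40 μL RPMI 1640 into 384-well plates pre-spotted with compounds across a concentration range. Luminescence was read on a PHERAstar FSX, normalized to DMSO, and fitted with a four-parameter logistic model.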

T1 sequence (Q07817 whole entry): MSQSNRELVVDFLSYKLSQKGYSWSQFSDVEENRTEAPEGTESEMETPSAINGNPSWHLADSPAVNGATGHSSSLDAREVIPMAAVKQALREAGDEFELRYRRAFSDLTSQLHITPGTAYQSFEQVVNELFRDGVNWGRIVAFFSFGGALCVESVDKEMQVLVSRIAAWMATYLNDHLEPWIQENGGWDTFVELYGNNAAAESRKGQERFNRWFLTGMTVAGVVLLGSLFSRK

Turning to `Cc1c(OCCCN2CCN(CC(=O)Nc3ccc4c(C5CCC(=O)NC5=O)nn(C)c4c3)C[C@@H]2C(F)(F)F)cccc1-c1ccc(N2CCc3cccc(C(=O)Nc4nc5ccccc5s4)c3C2)nc1C(=O)O` (stereo partly drawn) [Compound 245a, 6-(8-(benzo[d]thiazol-2-ylcarbamoyl)-3,4-dihydroisoquinolin-2(1H)-yl)-3-(3-(3-((2R)-4-(2-((3-(2,6-dioxopiperidin-3-yl)-1-methyl-1H-indazol-6-yl)amino)-2-oxoethyl)-2-(trifluoromethyl)piperazin-1-yl)propoxy)-2-methylphenyl)picolinic acid], for the setting “24 h”, the “Ymin (24 h)” value is given as “B (50% ≤ Ymin < 70%)”. Also, the DC50 (24 h, read-out: EC50 (24 h)) was less than 100 nM.
Consider `Cc1c(OCCCN2CCC(CC(=O)Nc3ccc4c(C5CCC(=O)NC5=O)nn(C)c4c3)CC2)cccc1-c1ccc(N2CCc3cccc(C(=O)Nc4nc5ccccc5s4)c3C2)nc1C(=O)O` (stereo not drawn) [Compound 120, 6-[8-(1,3-benzothiazol-2-ylcarbamoyl)-3,4-dihydro-1H-isoquinolin-2-yl]-3-[3-[3-[4-[2-[[3-(2,6-dioxo-3-piperidyl)-1-methyl-indazol-6-yl]amino]-2-oxo-ethyl]-1-piperidyl]propoxy]-2-methyl-phenyl]pyridine-2-carboxylic acid], for which the “Ymin (6 h)” value (6 h) was “B (50% ≤ Ymin < 70%)”. Also, the “Ymin (24 h)” value (24 h) is on record as “B (50% ≤ Ymin < 70%)”. The DC50 (6 h, read-out: EC50 (6 h)) was less than 100 nM and the DC50 (24 h, read-out: EC50 (24 h)) is less than 100 nM.
As to `Cc1c(OCCC2CCN(CC(=O)N3CCN(c4cccc5c(C6CCC(=O)NC6=O)nn(C)c45)CC3)CC2)cccc1-c1ccc(N2CCc3cccc(C(=O)Nc4nc5ccccc5s4)c3C2)nc1C(=O)O` (stereo not drawn) [Compound 145, 6-(8-(benzo[d]thiazol-2-ylcarbamoyl)-3,4-dihydroisoquinolin-2(1H)-yl)-3-(3-(2-(1-(2-(4-(3-(2,6-dioxopiperidin-3-yl)-1-methyl-1H-indazol-7-yl)piperazin-1-yl)-2-oxoethyl)piperidin-4-yl)ethoxy)-2-methylphenyl)picolinic acid], the “Ymin (6 h)” value (6 h) is on record as “B (50% ≤ Ymin < 70%)”. For the same compound, the “Ymin (24 h)” value (24 h) is listed as “A (Ymin < 50%)”. Besides, the DC50 is, setting by setting: (6 h, read-out: EC50 (6 h)) less than 100 nM; (24 h, read-out: EC50 (24 h)) less than 100 nM.
`Cc1c(OCCC2CCN(CCCC3CCN(c4ccc5c(C6CCC(=O)NC6=O)nn(C)c5c4)CC3)CC2)cccc1-c1ccc(N2CCc3cccc(C(=O)Nc4nc5ccccc5s4)c3C2)nc1C(=O)O` (stereo not drawn) [Compound 287, 6-[8-(1,3-benzothiazol-2-ylcarbamoyl)-3,4-dihydro-1H-isoquinolin-2-yl]-3-[3-[2-[1-[3-[1-[3-(2,6-dioxo-3-piperidyl)-1-methyl-indazol-6-yl]-4-piperidyl]propyl]-4-piperidyl]ethoxy]-2-methyl-phenyl]pyridine-2-carboxylic acid]: the “Ymin (24 h)” value (24 h) is “A (Ymin < 50%)”. In addition, the DC50 (24 h, read-out: EC50 (24 h)) was less than 100 nM.
Turning to `Cc1c(O[C@H]2CC[C@H](CCCN3CCN(c4ccc5c(C6CCC(=O)NC6=O)nn(C)c5c4)[C@@H](C)C3)CC2)cccc1-c1ccc(N2CCc3cccc(C(=O)Nc4nc5ccccc5s4)c3C2)nc1C(=O)O` (stereo partly drawn) [Compound 278b, 6-(8-(benzo[d]thiazol-2-ylcarbamoyl)-3,4-dihydroisoquinolin-2(1H)-yl)-3-(3-(((1R,4r)-4-(3-((3S)-4-(3-(2,6-dioxopiperidin-3-yl)-1-methyl-1H-indazol-6-yl)-3-methylpiperazin-1-yl)propyl)cyclohexyl)oxy)-2-methylphenyl)picolinic acid], the “Ymin (24 h)” value (24 h) is given as “A (Ymin < 50%)”. Moreover, the DC50 (24 h, read-out: EC50 (24 h)) is less than 100 nM.
For the compound `Cc1c(O[C@H]2CC[C@H](CCC[C@@H](C)N3CCN(c4cccc5c(C6CCC(=O)NC6=O)nn(C)c45)CC3)CC2)cccc1-c1ccc(N2CCc3cccc(C(=O)Nc4nc5ccccc5s4)c3C2)nc1C(=O)O` (single isomer, unassigned) [Compound 349b], the “Ymin (24 h)” value (24 h) is recorded as “A (Ymin < 50%)”. For the same compound, the DC50 (24 h, read-out: EC50 (24 h)) is less than 100 nM.
In the same order, the values of `Cc1c(O[C@H]2CC[C@H](CCCCN3CCN(c4ccc5c(C6CCC(=O)NC6=O)nn(C)c5c4)CC3(C)C)CC2)cccc1-c1ccc(N2CCc3cccc(C(=O)Nc4nc5ccccc5s4)c3C2)nc1C(=O)O` (stereo partly drawn) [Compound 323a, 6-(8-(benzo[d]thiazol-2-ylcarbamoyl)-3,4-dihydroisoquinolin-2(1H)-yl)-3-(3-(((1s,4r)-4-(4-(4-(3-(2,6-dioxopiperidin-3-yl)-1-methyl-1H-indazol-6-yl)-2,2-dimethylpiperazin-1-yl)butyl)cyclohexyl)oxy)-2-methylphenyl)picolinic acid] are “A (Ymin < 50%)” and less than 100 nM.
Turning to `Cc1c(-c2ccc(N3CCc4cccc(C(=O)Nc5nc6ccccc6s5)c4C3)nc2C(=O)NCCCCCCCCCCCC(=O)Nc2cccc3c(C4CCC(=O)NC4=O)nn(C)c23)cnn1CC12CC3CC(CC(C3)C1)C2` (stereo not drawn) [Compound 110, 2-(5-(1-((3r,5r,7r)-adamantan-1-ylmethyl)-5-methyl-1H-pyrazol-4-yl)-6-((12-((3-(2,6-dioxopiperidin-3-yl)-1-methyl-1H-indazol-7-yl)amino)-12-oxododecyl)carbamoyl)pyridin-2-yl)-N-(benzo[d]thiazol-2-yl)-1,2,3,4-tetrahydroisoquinoline-8-carboxamide], where the note is “6 h”, the “Ymin (6 h)” value is on record as “B (50% ≤ Ymin < 70%)”. The DC50 (6 h, read-out: EC50 (6 h)) was less than 100 nM.
Turning to `Cc1c(OCCCN2CCN(CC(=O)Nc3ccc4c(C5CCC(=O)NC5=O)nn(C)c4c3)[C@H](C(F)(F)F)C2)cccc1-c1ccc(N2CCc3cccc(C(=O)Nc4nc5ccccc5s4)c3C2)nc1C(=O)O` (stereo partly drawn) [Compound 187a, 6-(8-(benzo[d]thiazol-2-ylcarbamoyl)-3,4-dihydroisoquinolin-2(1H)-yl)-3-(3-(3-((3S)-4-(2-((3-(2,6-dioxopiperidin-3-yl)-1-methyl-1H-indazol-6-yl)amino)-2-oxoethyl)-3-(trifluoromethyl)piperazin-1-yl)propoxy)-2-methylphenyl)picolinic acid], the “Ymin (6 h)” value (6 h) is recorded as “B (50% ≤ Ymin < 70%)”. For the same compound, the “Ymin (24 h)” value (24 h) is given as “B (50% ≤ Ymin < 70%)”. The DC50 reads like this: (6 h, read-out: EC50 (6 h)) 100 to 1000 nM; (24 h, read-out: EC50 (24 h)) less than 100 nM.
In the case of `Cc1c(O[C@H]2CC[C@H](CC(=O)N3CCN(c4cccc5c(C6CCC(=O)NC6=O)nn(C)c45)CC3)CC2)cccc1-c1ccc(N2CCc3cccc(C(=O)Nc4nc5ccccc5s4)c3C2)nc1C(=O)O` (stereo partly drawn) [Compound 182a, 6-(8-(benzo[d]thiazol-2-ylcarbamoyl)-3,4-dihydroisoquinolin-2(1H)-yl)-3-(3-(((1r,4r)-4-(2-(4-(3-(2,6-dioxopiperidin-3-yl)-1-methyl-1H-indazol-7-yl)piperazin-1-yl)-2-oxoethyl)cyclohexyl)oxy)-2-methylphenyl)picolinic acid], the “Ymin (24 h)” value (24 h) was “B (50% ≤ Ymin < 70%)”. For the setting “24 h, read-out: EC50 (24 h)”, the DC50 is less than 100 nM.
In the same order, the values of `Cc1cc(CCCCC2CCN(CC(=O)Nc3ccc4c(C5CCC(=O)NC5=O)nn(C)c4c3)CC2)ccc1-c1ccc(N2CCc3cccc(C(=O)Nc4nc5ccccc5s4)c3C2)nc1C(=O)O` (stereo not drawn) [Compound 294] are “A (Ymin < 50%)” and less than 100 nM.
In the same order, the values of `Cc1c(CCCCC2CCN(CC(=O)Nc3ccc4c(C5CCC(=O)NC5=O)nn(C)c4c3)CC2)cccc1-c1ccc(N2CCc3cccc(C(=O)Nc4nc5ccccc5s4)c3C2)nc1C(=O)O` (stereo not drawn) [Compound 292, 6-[8-(1,3-benzothiazol-2-ylcarbamoyl)-3,4-dihydro-1H-isoquinolin-2-yl]-3-[3-[4-[1-[2-[[3-(2,6-dioxo-3-piperidyl)-1-methyl-indazol-6-yl]amino]-2-oxo-ethyl]-4-piperidyl]butyl]-2-methyl-phenyl]pyridine-2-carboxylic acid] are “A (Ymin < 50%)” and less than 100 nM.
Take `Cc1c(O[C@H]2CC[C@H](CCCCN3CCN(c4cc5c(cc4F)c(C4CCC(=O)NC4=O)nn5C)CC3)CC2)cccc1-c1ccc(N2CCc3cccc(C(=O)Nc4nc5ccccc5s4)c3C2)nc1C(=O)O` (stereo partly drawn) [Compound 296a, 6-(8-(benzo[d]thiazol-2-ylcarbamoyl)-3,4-dihydroisoquinolin-2(1H)-yl)-3-(3-(((1s,4r)-4-(4-(4-(3-(2,6-dioxopiperidin-3-yl)-5-fluoro-1-methyl-1H-indazol-6-yl)piperazin-1-yl)butyl)cyclohexyl)oxy)-2-methylphenyl)picolinic acid]: the “Ymin (24 h)” value (24 h) is given as “A (Ymin < 50%)”. Besides, under “24 h, read-out: EC50 (24 h)”, the DC50 is less than 100 nM.
The corresponding values for `Cc1c(OCCCc2ccc(CC(=O)Nc3ccc4c(C5CCC(=O)NC5=O)nn(C)c4c3)cn2)cccc1-c1ccc(N2CCc3cccc(C(=O)Nc4nc5ccccc5s4)c3C2)nc1C(=O)O` (stereo not drawn) [Compound 309, 6-[8-(1,3-benzothiazol-2-ylcarbamoyl)-3,4-dihydro-1H-isoquinolin-2-yl]-3-[3-[3-[5-[2-[[3-(2,6-dioxo-3-piperidyl)-1-methyl-indazol-6-yl]amino]-2-oxo-ethyl]-2-pyridyl]propoxy]-2-methyl-phenyl]pyridine-2-carboxylic acid] are “B (50% ≤ Ymin < 70%)” and 100 to 1000 nM.
Regarding `Cc1c(O[C@H]2CC[C@H](CCCC(C)N3CCN(c4cccc5c(C6CCC(=O)NC6=O)nn(C)c45)CC3)CC2)cccc1-c1ccc(N2CCc3cccc(C(=O)Nc4nc5ccccc5s4)c3C2)nc1C(=O)O` (single isomer, unassigned) [Compound 349a], the “Ymin (24 h)” value (24 h) is recorded as “A (Ymin < 50%)”. In addition, the DC50 (24 h, read-out: EC50 (24 h)) was less than 100 nM.
